Source: patent US10538580B2, “Anti-equol antibody composition and use therefor” (HEALTHCARE SYSTEMS CO., LTD., priority 2016, dated 2020)

System: anti-equol monoclonal antibody composition
Test: Evaluating cross-reactivity of anti-equol monoclonal antibody composition
Format: binding, mouse
Settings: for Cross-reactivity with S-equol (%): S-equol as 100%; for S-equol concentration calculated from the calibration curve: reacted with the antibody, read from S-equol calibration curve
Method: The cross-reactivity rate can be obtained as follows for example. First, a calibration curve is prepared using S-equol. Compounds including S-equol are prepared with concentrations of 1 μM and 10 μM, and reacted with the antibody at each concentration, and the S-equol concentration is calculated from the calibration curve. For example, if 10 μM of daidzein is added and detected at a concentration of 10 μM based on the calibration curve the cross-reactivity is given as 100%, while if it is detected at a concentration of 1 μM the cross-reactivity is given as 10%, and if it is detected at a concentration of 0.1 μM the cross-reactivity is given as 1%. To investigate the cross-reactivity of the resulting antibody composition, reactivity to 9 kinds of compounds including S-equol (S-equol, daidzein, genistein, glycitein, ellagic acid dihydrate, catechin monohydrate, gallic acid, apigenin and DMA) was investigated. First, a calibration curve was prepared using S-equol. The 9 compounds including S-equol were prepared at concentrations of 1 μM and 10 μM, and reacted with the antibody at each concentration, and cross-reactivity was calculated from the calibration curve.

Compound | Cross-reactivity with S-equol (%) (compound at 1 μM) | Cross-reactivity with S-equol (%) (compound at 10 μM) | S-equol concentration calculated from the calibration curve (compound prepared at 1 μM) | S-equol concentration calculated from the calibration curve (compound prepared at 10 μM)
Oc1ccc([C@H]2COc3cc(O)ccc3C2)cc1 [S-Equol, S-equol] | 100.00 | 100.00 | 1.34 | 10.84
(+)-Catechin hydrate | 0.00 | 0.09 | 0.00 | 0.01
C[C@@H](C(=O)c1ccc(O)cc1O)c1ccc(O)cc1 [R—O-DMA, R—O-desmethylangolensin] | 0.00 | 0.00 | 0.00 | 0.00
O=C(O)c1cc(O)c(O)c(O)c1 [Gallic acid, gallic acid] | 0.00 | 0.74 | 0.00 | 0.08
O=c1c(-c2ccc(O)cc2)coc2cc(O)ccc12 [Daidzein, daidzein] | 0.00 | 0.00 | 0.00 | 0.00
O=c1cc(-c2ccc(O)cc2)oc2cc(O)cc(O)c12 [Apigenin, apigenin] | 0.00 | 0.00 | 0.00 | 0.00
COc1cc2c(=O)c(-c3ccc(O)cc3)coc2cc1O [Glycitein, glycitein] | 0.00 | 0.00 | 0.00 | 0.00
O=c1c(-c2ccc(O)cc2)coc2cc(O)cc(O)c12 [Genistein, genistein] | 0.00 | 0.00 | 0.00 | 0.00
O=c1oc2c(O)c(O)cc3c(=O)oc4c(O)c(O)cc1c4c23 [Ellagic acid dihydrate, ellagic acid dihydrate] | 0.00 | 0.00 | 0.00 | 0.00
Oc1ccc([C@@H]2COc3cc(O)ccc3C2)cc1 [R-Equol, R-equol] | 89.55 | 109.59 | 1.20 | 11.88
